Experimental data as given in publication PMC12766724, “Synthesis, Anthelmintic Activity, and Mechanism of Action of 5‑Aryl‑1H‑indoles” (Journal of Agricultural and Food Chemistry, 2025).

Test system: Heterodera schachtii second-stage juveniles (J2)
Assay: Motility on WMicrotracker ONE
Type: in vivo
Details: 10 µM group; initial (prior to the treatment)
Summary of the method: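 Second-stage juveniles of H. schachtii, reared on in vitro mustard roots on modified KNOP medium, were exposed to compounds in microtiter wells. Motility was scored as activity counts, i.e. interruptions of infrared microbeams passing through each well.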

Structure (SMILES)	average activity counts
CCCOc1cccc(-c2ccc3[nH]ccc3c2)c1 [i-12]	192
Clc1ccc(-c2ccc3[nH]ccc3c2)cc1 [i-19]	190
Fc1ccc(-c2ccc3[nH]ccc3c2)cc1 [i-20]	165

Same assay, conditions: 10 µM; 48 h

Structure (SMILES)	average activity counts
CCCOc1cccc(-c2ccc3[nH]ccc3c2)c1 [i-12]	200
Clc1ccc(-c2ccc3[nH]ccc3c2)cc1 [i-19]	179
Fc1ccc(-c2ccc3[nH]ccc3c2)cc1 [i-20]	169

Same assay, conditions: 10 µM; 72 h

Structure (SMILES)	average activity counts
CCCOc1cccc(-c2ccc3[nH]ccc3c2)c1 [i-12]	158
Clc1ccc(-c2ccc3[nH]ccc3c2)cc1 [i-19]	192
Fc1ccc(-c2ccc3[nH]ccc3c2)cc1 [i-20]	176

Same assay, conditions: 50 µM group; initial (prior to the treatment)

Structure (SMILES)	average activity counts
CCCOc1cccc(-c2ccc3[nH]ccc3c2)c1 [i-12]	176
Clc1ccc(-c2ccc3[nH]ccc3c2)cc1 [i-19]	183
Fc1ccc(-c2ccc3[nH]ccc3c2)cc1 [i-20]	174

Same assay, conditions: 50 µM; 48 h

Structure (SMILES)	average activity counts
CCCOc1cccc(-c2ccc3[nH]ccc3c2)c1 [i-12]	195
Clc1ccc(-c2ccc3[nH]ccc3c2)cc1 [i-19]	90
Fc1ccc(-c2ccc3[nH]ccc3c2)cc1 [i-20]	81

Same assay, conditions: 50 µM; 72 h

Structure (SMILES)	average activity counts
CCCOc1cccc(-c2ccc3[nH]ccc3c2)c1 [i-12]	136
Clc1ccc(-c2ccc3[nH]ccc3c2)cc1 [i-19]	18
Fc1ccc(-c2ccc3[nH]ccc3c2)cc1 [i-20]	27

Same assay, conditions: 100 µM group; initial (prior to the treatment)

Structure (SMILES)	average activity counts
CCCOc1cccc(-c2ccc3[nH]ccc3c2)c1 [i-12]	195
Clc1ccc(-c2ccc3[nH]ccc3c2)cc1 [i-19]	195
Fc1ccc(-c2ccc3[nH]ccc3c2)cc1 [i-20]	180

Same assay, conditions: 100 µM; 48 h

Structure (SMILES)	average activity counts
CCCOc1cccc(-c2ccc3[nH]ccc3c2)c1 [i-12]	166
Clc1ccc(-c2ccc3[nH]ccc3c2)cc1 [i-19]	121
Fc1ccc(-c2ccc3[nH]ccc3c2)cc1 [i-20]	4

Same assay, conditions: 100 µM; 72 h

Structure (SMILES)	average activity counts	decrease in mean activity counts
CCCOc1cccc(-c2ccc3[nH]ccc3c2)c1 [i-12]	177	
Clc1ccc(-c2ccc3[nH]ccc3c2)cc1 [i-19]	30	85%
Fc1ccc(-c2ccc3[nH]ccc3c2)cc1 [i-20]	5	97%

Test system: Arabidopsis thaliana Col-0
Assay: Germination rate and phytotoxicity
Type: in vivo
Details: 5 µM; 5 DPS
Summary of the method: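 Sterilized Col-0 seeds sown on 1/2 MS with compounds at 5, 10, 50 and 100 μM in 0.3% DMSO (DMSO mock), grown under 16 h light/8 h dark at 22 °C/20 °C. Germination rate scored at day 5; primary root length and seedling weight after further 5 days.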

Structure (SMILES)	average fraction of germinated seeds
CCCOc1cccc(-c2ccc3[nH]ccc3c2)c1 [i-12]	0.96
Clc1ccc(-c2ccc3[nH]ccc3c2)cc1 [i-19]	0.93
Fc1ccc(-c2ccc3[nH]ccc3c2)cc1 [i-20]	0.96

Same assay, conditions: 5 µM; 10 DPS

Structure (SMILES)	main root length	plant weight
CCCOc1cccc(-c2ccc3[nH]ccc3c2)c1 [i-12]	37.25 mm	32.51 mg
Clc1ccc(-c2ccc3[nH]ccc3c2)cc1 [i-19]	38.83 mm	32.28 mg
Fc1ccc(-c2ccc3[nH]ccc3c2)cc1 [i-20]	39.53 mm	30.62 mg

Same assay, conditions: 10 µM; 5 DPS

Structure (SMILES)	average fraction of germinated seeds
CCCOc1cccc(-c2ccc3[nH]ccc3c2)c1 [i-12]	0.93
Clc1ccc(-c2ccc3[nH]ccc3c2)cc1 [i-19]	0.96
Fc1ccc(-c2ccc3[nH]ccc3c2)cc1 [i-20]	0.91

Same assay, conditions: 10 µM; 10 DPS

Structure (SMILES)	main root length	plant weight
CCCOc1cccc(-c2ccc3[nH]ccc3c2)c1 [i-12]	38.66 mm	34.91 mg
Clc1ccc(-c2ccc3[nH]ccc3c2)cc1 [i-19]	37.74 mm	30.72 mg
Fc1ccc(-c2ccc3[nH]ccc3c2)cc1 [i-20]	34.00 mm	27.14 mg

Same assay, conditions: 50 µM; 5 DPS

Structure (SMILES)	average fraction of germinated seeds
CCCOc1cccc(-c2ccc3[nH]ccc3c2)c1 [i-12]	0.93
Clc1ccc(-c2ccc3[nH]ccc3c2)cc1 [i-19]	0.97
Fc1ccc(-c2ccc3[nH]ccc3c2)cc1 [i-20]	0.96

Same assay, conditions: 50 µM; 10 DPS

Structure (SMILES)	main root length	plant weight
CCCOc1cccc(-c2ccc3[nH]ccc3c2)c1 [i-12]	35.82 mm	27.55 mg
Clc1ccc(-c2ccc3[nH]ccc3c2)cc1 [i-19]	33.27 mm	24.85 mg
Fc1ccc(-c2ccc3[nH]ccc3c2)cc1 [i-20]	31.49 mm	24.67 mg

Same assay, conditions: 100 µM; 5 DPS

Structure (SMILES)	average fraction of germinated seeds
Clc1ccc(-c2ccc3[nH]ccc3c2)cc1 [i-19]	0.93
Fc1ccc(-c2ccc3[nH]ccc3c2)cc1 [i-20]	0.95

Same assay, conditions: 100 µM; 10 DPS

Structure (SMILES)	main root length	plant weight
Clc1ccc(-c2ccc3[nH]ccc3c2)cc1 [i-19]	19.96 mm	15.22 mg
Fc1ccc(-c2ccc3[nH]ccc3c2)cc1 [i-20]	25.82 mm	16.94 mg

Test system: human keratinocytes (HaCaT)
Assay: Resazurin assay, 3-day treatment
Type: cell-based
Details: 10 µM

Structure (SMILES)	Average viability (signal intensity relative to control)
CCCOc1cccc(-c2ccc3[nH]ccc3c2)c1 [i-12]	1.06 ± 0.14
Clc1ccc(-c2ccc3[nH]ccc3c2)cc1 [i-19]	1.01 ± 0.02
Fc1ccc(-c2ccc3[nH]ccc3c2)cc1 [i-20]	0.97 ± 0.01

Same assay, conditions: 20 µM

Structure (SMILES)	Average viability (signal intensity relative to control)
CCCOc1cccc(-c2ccc3[nH]ccc3c2)c1 [i-12]	1.09 ± 0.13
Clc1ccc(-c2ccc3[nH]ccc3c2)cc1 [i-19]	1.02 ± 0.05
Fc1ccc(-c2ccc3[nH]ccc3c2)cc1 [i-20]	0.99 ± 0.02

Same assay, conditions: 40 µM

Structure (SMILES)	Average viability (signal intensity relative to control)	decrease in viability
CCCOc1cccc(-c2ccc3[nH]ccc3c2)c1 [i-12]	1.06 ± 0.09	
Clc1ccc(-c2ccc3[nH]ccc3c2)cc1 [i-19]	0.86 ± 0.1	approximately 5%
Fc1ccc(-c2ccc3[nH]ccc3c2)cc1 [i-20]	0.94 ± 0.02	

Test system: C. elegans N2 wild-type
Assay: Chitinase assay (reproductive capacity)
Type: in vivo, Caenorhabditis elegans
Details: Caenorhabditis elegans
Summary of the method: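 Wild-type N2 L1 larvae were exposed to compounds for 4 days, then populations were examined microscopically and Chitinase activity, released at hatching, was measured as a read-out of reproduction. Failure from acute or reproductive toxicity or developmental defects is detected.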

Structure (SMILES)	IC50
CCCOc1cccc(-c2ccc3[nH]ccc3c2)c1 [i-12]	9.6 ± 0.9 µM
Clc1ccc(-c2ccc3[nH]ccc3c2)cc1 [i-19]	6.67 ± 0.6 µM
Fc1ccc(-c2ccc3[nH]ccc3c2)cc1 [i-20]	9.05 ± 0.62 µM

Test system: C. elegans CB3474 ben-1(e1880) III.
Assay: Chitinase assay (reproductive capacity)
Type: in vivo
Details: Caenorhabditis elegans; mebendazole-resistant strain
Method: (§1) C. elegans strains used in this study were N2 (wild-type), levamisole-resistant strains ZZ15 (lev-8(x15) X) and […] (lev-1(e211) IV), ivermectin-resistant strain DA1316 (avr-14(ad1305) I; avr-15(vu227) glc-1(pk54) V), mebendazole-resistant strain […] (ben-1(e1880) III), and three strains with mutations in succinate dehydrogenase, RP2699, RP2700, and RP2702. The worms were cultivated on Nematode Growth Medium agar plates seeded with Escherichia coli OP50 in 20 °C according to the standard cultivation protocols. Strains RP2699, RP2700, and RP2702 were generated by Prof. Peter Roy’s group. All other strains and bacteria were purchased from the Caenorhabditis Genetics Center (CGC, Minneapolis, MN).
(§2) The effect of compounds on C. elegans was evaluated using the Chitinase assay as we described previously.
(§3) Lastly, strain DA1316 has mutations in three genes encoding subunits of the glutamate-gated chloride channel and is highly resistant to avermectins.

Structure (SMILES)	IC50
CCCOc1cccc(-c2ccc3[nH]ccc3c2)c1 [i-12]	8.32 ± 0.74 µM
Clc1ccc(-c2ccc3[nH]ccc3c2)cc1 [i-19]	6.61 ± 0.85 µM
Fc1ccc(-c2ccc3[nH]ccc3c2)cc1 [i-20]	9.97 ± 1.06 µM

Test system: C. elegans ZZ15 lev-8(x15) X.
Assay: Chitinase assay (reproductive capacity)
Type: in vivo
Details: Caenorhabditis elegans; levamisole-resistant strain
Method: as §1, §2, §3

Structure (SMILES)	IC50
CCCOc1cccc(-c2ccc3[nH]ccc3c2)c1 [i-12]	8.03 ± 1.13 µM
Clc1ccc(-c2ccc3[nH]ccc3c2)cc1 [i-19]	5.92 ± 0.39 µM
Fc1ccc(-c2ccc3[nH]ccc3c2)cc1 [i-20]	11 ± 0.51 µM

Test system: C. elegans DA1316 avr-14(ad1305) I; avr-15(vu227) glc-1(pk54) V.
Assay: Chitinase assay (reproductive capacity)
Type: in vivo
Details: Caenorhabditis elegans; ivermectin-resistant strain
Method: as §1, §2, §3

Structure (SMILES)	IC50
CCCOc1cccc(-c2ccc3[nH]ccc3c2)c1 [i-12]	7.59 ± 1.99 µM
Clc1ccc(-c2ccc3[nH]ccc3c2)cc1 [i-19]	5.15 ± 1.01 µM
Fc1ccc(-c2ccc3[nH]ccc3c2)cc1 [i-20]	10.4 ± 1.09 µM

Test system: C. elegans CB211 lev-1(e211) IV.
Assay: Chitinase assay (reproductive capacity)
Type: in vivo
Details: Caenorhabditis elegans; levamisole-resistant strain
Method: as §1, §2, §3

Structure (SMILES)	IC50
CCCOc1cccc(-c2ccc3[nH]ccc3c2)c1 [i-12]	8.69 ± 1.26 µM
Clc1ccc(-c2ccc3[nH]ccc3c2)cc1 [i-19]	6.8 ± 1.95 µM
Fc1ccc(-c2ccc3[nH]ccc3c2)cc1 [i-20]	9.02 ± 0.75 µM
